The values below come from ChEMBL document CHEMBL1135472 (J Med Chem, 2002).

Calls of active or inactive are those of the source. No cut-off for these calls is given here.

For assay [1], the target named is T1, Seed linoleate 13S-lipoxygenase-1 (Glycine max, UniProt P08170).
T1 sequence (P08170 whole entry): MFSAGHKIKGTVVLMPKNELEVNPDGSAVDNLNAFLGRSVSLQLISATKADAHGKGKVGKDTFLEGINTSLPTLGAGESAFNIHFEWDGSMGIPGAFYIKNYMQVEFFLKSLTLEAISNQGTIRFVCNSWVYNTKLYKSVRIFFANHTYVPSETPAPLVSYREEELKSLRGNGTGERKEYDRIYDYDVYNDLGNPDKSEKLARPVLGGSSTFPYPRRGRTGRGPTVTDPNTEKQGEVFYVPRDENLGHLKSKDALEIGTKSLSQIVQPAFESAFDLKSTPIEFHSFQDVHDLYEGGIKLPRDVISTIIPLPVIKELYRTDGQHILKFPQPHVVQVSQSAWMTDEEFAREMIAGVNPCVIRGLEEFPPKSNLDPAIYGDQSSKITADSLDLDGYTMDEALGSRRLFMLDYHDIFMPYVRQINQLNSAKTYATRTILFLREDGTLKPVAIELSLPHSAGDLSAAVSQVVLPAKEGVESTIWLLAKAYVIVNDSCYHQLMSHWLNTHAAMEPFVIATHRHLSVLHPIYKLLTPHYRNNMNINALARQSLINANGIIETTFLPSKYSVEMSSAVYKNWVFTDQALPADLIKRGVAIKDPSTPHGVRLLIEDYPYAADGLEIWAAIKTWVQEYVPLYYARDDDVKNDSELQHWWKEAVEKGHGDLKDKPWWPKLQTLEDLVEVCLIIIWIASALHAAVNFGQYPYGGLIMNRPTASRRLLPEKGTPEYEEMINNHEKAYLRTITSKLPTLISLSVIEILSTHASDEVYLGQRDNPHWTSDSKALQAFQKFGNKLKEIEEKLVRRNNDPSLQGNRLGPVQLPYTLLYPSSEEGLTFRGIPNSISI
Description: Inhibitory activity against soybean 1-lipoxygenase (SLO).

Assay [2] has as its target T2, Polyunsaturated fatty acid lipoxygenase ALOX12 (Homo sapiens, UniProt P18054).
T2 sequence (P18054 whole entry): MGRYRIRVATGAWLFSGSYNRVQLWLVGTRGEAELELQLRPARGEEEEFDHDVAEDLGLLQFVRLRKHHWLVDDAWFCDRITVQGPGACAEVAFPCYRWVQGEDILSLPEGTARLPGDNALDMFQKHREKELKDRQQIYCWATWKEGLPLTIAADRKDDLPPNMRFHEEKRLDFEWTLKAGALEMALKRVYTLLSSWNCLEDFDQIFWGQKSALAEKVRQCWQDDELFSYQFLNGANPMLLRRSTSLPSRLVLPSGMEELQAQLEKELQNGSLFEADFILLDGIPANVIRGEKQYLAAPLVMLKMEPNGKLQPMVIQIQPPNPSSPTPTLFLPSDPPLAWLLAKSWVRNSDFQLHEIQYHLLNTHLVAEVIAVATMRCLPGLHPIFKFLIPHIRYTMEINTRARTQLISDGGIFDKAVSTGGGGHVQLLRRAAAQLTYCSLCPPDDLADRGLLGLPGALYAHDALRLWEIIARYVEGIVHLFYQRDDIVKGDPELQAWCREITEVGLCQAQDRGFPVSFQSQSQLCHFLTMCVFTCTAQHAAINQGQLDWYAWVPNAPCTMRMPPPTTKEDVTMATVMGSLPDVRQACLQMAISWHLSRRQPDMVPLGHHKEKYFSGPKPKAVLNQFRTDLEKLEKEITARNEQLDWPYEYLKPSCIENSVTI
Put plainly: Inhibitory activity against human platelet 12-lipoxygenase (12-HLO).

For assay [3], the target named is T3, Polyunsaturated fatty acid lipoxygenase ALOX12 (Homo sapiens) (UniProt P18054).
T3 sequence (whole entry): T2 sequence (P18054 whole entry)
Description: % inhibition against human platelet 12-lipoxygenase (12-HLO). To be noted: concentration not given here.

The target in assay [4] is T4, Polyunsaturated fatty acid lipoxygenase ALOX15 (Homo sapiens, UniProt P16050).
T4 sequence (P16050 whole entry): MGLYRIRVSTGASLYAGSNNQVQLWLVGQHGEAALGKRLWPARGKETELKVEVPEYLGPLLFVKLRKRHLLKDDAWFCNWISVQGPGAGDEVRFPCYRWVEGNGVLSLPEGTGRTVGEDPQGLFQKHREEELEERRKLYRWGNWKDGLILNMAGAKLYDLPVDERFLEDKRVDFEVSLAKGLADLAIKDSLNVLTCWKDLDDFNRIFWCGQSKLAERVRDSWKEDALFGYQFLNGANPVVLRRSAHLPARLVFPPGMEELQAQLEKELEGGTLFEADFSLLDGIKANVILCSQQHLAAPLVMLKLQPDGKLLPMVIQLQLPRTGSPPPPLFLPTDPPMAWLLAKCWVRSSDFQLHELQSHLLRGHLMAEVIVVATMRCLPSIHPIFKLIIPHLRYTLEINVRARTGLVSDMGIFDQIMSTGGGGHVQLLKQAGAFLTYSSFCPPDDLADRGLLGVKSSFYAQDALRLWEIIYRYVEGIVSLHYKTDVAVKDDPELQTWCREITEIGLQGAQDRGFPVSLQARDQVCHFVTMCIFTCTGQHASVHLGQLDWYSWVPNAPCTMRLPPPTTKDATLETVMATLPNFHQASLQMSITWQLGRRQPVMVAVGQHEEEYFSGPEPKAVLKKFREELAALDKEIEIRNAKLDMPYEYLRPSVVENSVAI
Put plainly: Concentration that cause 50% activation of human reticulocyte 15-lipoxygenase (15-HLO).

The target of assay [5] is T5, Seed linoleate 13S-lipoxygenase-1 (Glycine max) (UniProt P08170).
T5 sequence (whole entry): T1 sequence (P08170 whole entry)
Put plainly: % inhibition against soybean 1-lipoxygenase (SLO).

Assay [6] has as its target T6, Polyunsaturated fatty acid lipoxygenase ALOX15 (Homo sapiens) (UniProt P16050).
T6 sequence (whole entry): T4 sequence (P16050 whole entry)
Description: Compound was evaluated for the percent increase in activation concentration of human reticulocyte 15-lipoxygenase (15-HLO).

In assay [7] the target is T3, Polyunsaturated fatty acid lipoxygenase ALOX12 (Homo sapiens). Description: percent inhibition against human platelet 12-lipoxygenase (12-HLO); NI is no inhibition.
Assay [8] in a line: Inhibition ratio of human reticulocyte 15-lipoxygenase (15-HLO)/ human platelet 12-lipoxygenase (12-HLO); NI is no inhibition.
For assay [9], the target named is T6, Polyunsaturated fatty acid lipoxygenase ALOX15 (Homo sapiens). Description: Inhibitory activity against human reticulocyte 15-lipoxygenase (15-HLO); NI is no inhibition.
Assay [10] has as its target T5, Seed linoleate 13S-lipoxygenase-1 (Glycine max). Put plainly: percent inhibition against soybean 1-lipoxygenase (SLO);NI is no inhibition.
Assay [11] addresses T6, Polyunsaturated fatty acid lipoxygenase ALOX15 (Homo sapiens). Put plainly: Inhibitory activity against human reticulocyte 15-lipoxygenase (15-HLO). To be noted: concentration not given here.

In the case of `C[C@H](Cc1cc(O)c(O)cc1Br)[C@@H](C)Cc1cc(O)c(O)cc1Br`, the IC50 in assay [1] worked out at 0.057 µM; in assay [2], 0.43 µM.

With `CCC(=O)Oc1ccc(C[C@@H](C)[C@@H](C)Cc2ccc(OC(=O)CC)c(OC(=O)CC)c2)cc1OC(=O)CC`, the inhibition in [3] and in assay [5] was 0% throughout. This compound also gave an AC50 in assay [4] of 0.3 µM. Also, the activation in [6] was 22%.

Consider `COc1ccc(C[C@@H](C)[C@@H](C)Cc2ccc(OC)c(OC)c2)cc1OC`, for which the inhibition entry in assay [7], in assay [8], in assay [9] and in [10] was “inactive” in each case.

Take `COc1cc(Br)c(C[C@@H](C)[C@@H](C)Cc2cc(OC)c(OC)cc2Br)cc1OC`: the inhibition entry in assay [7], in [8], in assay [9] and in assay [10] was “inactive” each time.

`C[C@H](Cc1ccc(O)c(O)c1)[C@@H](C)Cc1ccc2c(c1)OC(C)(C)O2`: the 50% inhibitory concentration (IC50) in assay [1] amounted to 0.14 µM; in [2], 2.2 µM.

As for `CCC(=O)Oc1cc(C[C@@H](C)[C@@H](C)Cc2cc(OC(=O)CC)c(OC(=O)CC)cc2[N+](=O)[O-])c([N+](=O)[O-])cc1OC(=O)CC`, the inhibition in assay [3], in assay [5] and in [11] was 0% each time.

Regarding `CC(C)C(=O)Oc1ccc(C[C@@H](C)[C@@H](C)Cc2ccc(OC(=O)C(C)C)c(OC(=O)C(C)C)c2)cc1OC(=O)C(C)C`, the inhibition in [3] and in assay [5] was 0% throughout. In assay [4], this compound came in with an AC50 of 0.5 µM. In addition, in [6], the activation was found to be 70%.

For the compound `CCCC(=O)Oc1ccc(C[C@@H](C)[C@@H](C)Cc2ccc(OC(=O)CCC)c(OC(=O)CCC)c2)cc1OC(=O)CCC`, the inhibition in [3] and in [5] was 0% in each case. Also, in assay [4], the AC50 turned out to be 0.3 µM. The compound further registered an activation in assay [6] of 77%.

Turning to `COc1cc(C[C@@H](C)[C@@H](C)Cc2ccc(O)c(O)c2)ccc1O`, the IC50 turned out to be 0.17 µM in assay [1] and 14 µM in assay [2].

Take `COc1cc(C[C@@H](C)[C@@H](C)Cc2cc(OC)c(OC)cc2NC(C)=O)c(NC(C)=O)cc1OC`: the inhibition result in [7], in [8], in assay [9] and in assay [10] was “inactive” each time.

In the case of `COc1cc(C[C@@H](C)[C@@H](C)Cc2cc(OC)c(OC)cc2[N+](=O)[O-])c([N+](=O)[O-])cc1OC`, the inhibition in assay [3], in assay [5] and in assay [11] was 0% in each case.

`C[C@H](Cc1cc(O)c(O)cc1[N+](=O)[O-])[C@@H](C)Cc1cc(O)c(O)cc1[N+](=O)[O-]` displayed an IC50 in assay [2] of 0.36 µM.

With `C[C@H](Cc1ccc(OCOC(=O)C(C)(C)C)c(OCOC(=O)C(C)(C)C)c1)[C@@H](C)Cc1ccc(OCOC(=O)C(C)(C)C)c(OCOC(=O)C(C)(C)C)c1`, the inhibition in [3], in assay [5] and in assay [11] was 0% each time.

Turning to `COc1cc(N)c(C[C@@H](C)[C@@H](C)Cc2cc(OC)c(OC)cc2N)cc1OC`, the inhibition in assay [3], in assay [5] and in [11] was 0% throughout.

`CC(=O)Oc1ccc(C[C@@H](C)[C@@H](C)Cc2ccc(OC(C)=O)c(OC(C)=O)c2)cc1OC(C)=O`: the inhibition in [3], in assay [5] and in assay [11] was 0% each time.

For `COc1cc(Cl)c(C[C@@H](C)[C@@H](C)Cc2cc(OC)c(OC)cc2Cl)cc1OC`, the inhibition entry in assay [7], in [8], in [9] and in assay [10] was “inactive” each time.

As for `CCc1cc(O)c(O)cc1C[C@@H](C)[C@@H](C)Cc1cc(O)c(O)cc1CC`, the figures for the IC50 in [1] and in assay [2] were 0.14 µM and 3.1 µM, respectively.

As for `COc1cc(C[C@@H](C)[C@@H](C)Cc2cc(OC)c(OC)cc2C(C)=O)c(C(C)=O)cc1OC`, the inhibition result in assay [7], in assay [8], in assay [9] and in assay [10] was “inactive” each time.

In [2], `CC(=O)c1cc(O)c(O)cc1C[C@@H](C)[C@@H](C)Cc1cc(O)c(O)cc1C(C)=O` came in with an IC50 of 26 µM.

`CCCCCC(=O)Oc1ccc(C[C@@H](C)[C@@H](C)Cc2ccc(OC(=O)CCCCC)c(OC(=O)CCCCC)c2)cc1OC(=O)CCCCC`: the inhibition in assay [3] and in assay [5] was 0% throughout. In assay [4], this compound had an AC50 of 0.2 µM. Besides, the activation in [6] came to 70%.

For the compound `C[C@H](Cc1cc(O)c(O)cc1Cl)[C@@H](C)Cc1cc(O)c(O)cc1Cl`, the IC50 in assay [1] was found to be 0.065 µM; in assay [2] it was 0.36 µM.

For orientation: IC50 means the concentration at which inhibition is half-maximal. High values mean a need for much substance, low ones inhibition by little substance. A word on the inhibition: it is the drop in the measured response relative to a control, in per cent. Usually AC50 stands for the concentration at which the activity in the assay is half-maximal. Read a high AC50 as activity only at high concentration.
